Format in all cases: cell-based
Experiment [1] concerns klf2 promoter-luciferase construct in A204 cells. The experiment in a line: klf2 reporter gene induction (p21 versus klf2 selectivity). As to conditions: SNDX-275 p21/klf2 ratio defined as 1.0; for p21/klf2 (RP3): relative selectivity compared with SNDX-275: 3 micromolar; for p21/klf2 (RP10): relative selectivity compared with SNDX-275: 10 micromolar. Here is the method:
(§1) The novel compounds of the present invention were tested for their ability to induce p21 gene expression using a reporter gene assay involving HeLa cells transfected with a p21 promoter-luciferase construct. The p21 promoter contained the Sp1/Sp3 binding site for HDAC but not the upstream p53 binding site. Briefly, the day before transfection, HeLa cells were seeded at 11,000 cells/well in a 96-well culture plate and incubated at 37 degrees Celsius in 5% CO2 overnight. For transfection, the medium was removed and replaced with 100 microliters/well transfection media previously prepared as follows: 5 microliters serum-free DMEM, 0.15 microliters Fugene 6 reagent, 40 ng p21-luc, 10 ng GFP were mixed gently and incubated at room temperature for 30 minutes; then 98 microliters DMEM (with 10% FBS, 1% penicillin and streptomycin) was added to the DNA:Fugene 6 reagent complex and mixed gently. After incubating the cells for 24 hours at 37 degrees Celsius in 5% CO2, fresh media and test compounds were added to the wells and the cells further incubated for 15 hours at 37 degrees Celsius in 5% CO2. Cells were lysed by adding 80 microliters/well of a cell culture lysis reagent (Promega). 50 microliters of each lysate was taken for GFP detection using an excitation wavelength of 486 nm and detection at 527 nm. 100 microliters Luciferase assay reagent (Promega) was then added to every 20 microliters cell lysate for luminometer detection. […] Induction activity for specific representative compounds can be found in Table 4.
The novel compounds of the present invention were tested for their ability to induce klf2 gene expression using a reporter gene assay involving A204 cells transfected with a klf2 promoter-luciferase construct. The klf2 promoter contained the MEF2 binding site for HDAC3/class IIa HDAC complex. Briefly, the day before transfection, A204 cells were seeded at 11,000 cells/well in a 96-well culture plate and incubated at 37 degrees Celsius in 5% CO2 overnight. For transfection, the medium was removed and replaced with 100 microliters/well transfection media previously prepared as follows: 5 microliters serum-free DMEM, 0.15 microliters Fugene 6 reagent, 40 ng klf2-luc, 10 ng GFP were mixed gently and incubated at room temperature for 30 minutes; then 98 microliters DMEM (with 10% FBS, 1% penicillin and streptomycin) was added to the DNA:Fugene 6 reagent complex and mixed gently. After incubating the cells for 24 hours at 37 degrees Celsius in 5% CO2, fresh media and test compounds were added to the wells and the cells further incubated for 15 hours at 37 degrees Celsius in 5% CO2. Finally, 10 ng/ml TNF-α was added and the cells further incubated for 4 hours. Cells were lysed by adding 80 microliters/well of a cell culture lysis reagent (Promega). 50 microliters of each lysate was taken for GFP detection using an excitation wavelength of 486 nm and detection at 527 nm. 100 microliters Luciferase assay reagent (Promega) was then added to every 20 microliters cell lysate for luminometer detection.
A general note: A reporter such as luciferase makes a cellular process visible.

Experiment [2] relates to p21 promoter-luciferase construct in HeLa cells. Briefly: p21 reporter gene induction. The following applies: 3 micromolar, 15 hours, relative to SNDX-275. Here is the method: as §1
The test system of experiment [3] is HCT-116 colon cancer cells. Briefly: Antiproliferative activity, growth inhibition (MTS/WST assay). As to conditions: Homo sapiens, 72 hour growth inhibition, read-out: GI50 HCT116. Here is the method:
The novel compounds of the present invention were tested for their ability to inhibit growth of various cancer cell lines (HeLa, MCF7, U2OS, HepG2, HL60, HCT-116) using in vitro growth inhibition assays described below.
Cells were seeded in 96-well culture plates (200 microliters/well at different seeding concentrations depending on cell type) and incubated overnight at 37 degrees Celsius in 5% CO2. After adding compound dilutions to the cells (DMSO concentration kept below 0.5%), the cells were incubated at 37 degrees Celsius in 5% CO2 for 72 hours. The effects on proliferation were determined by addition of MTS reagent (Promega) according to the manufacturer's instruction, followed by incubation for 2 hours at 37 degrees Celsius in 5% CO2, and finally recording the absorbance at 490 nm using an ELISA plate reader.
Similar to MTS assay except that the developer is the CCK-8 reagent (Dojindo) and the plate reader is set to 450 nm absorbance.
GI50 values against HCT-116 colon cancer cells for specific representative compounds can be found in Table 4.

Regarding `Nc1ccccc1NC(=O)/C=C/c1ccc(C(C(=O)Nc2ccc(C(F)(F)F)cc2)N2CCCC2)cc1` (stereo not shown) [Example 9-11, (E)-N-(2-Amino-phenyl)-3-{4-[pyrrolidin-1-yl-(4-trifluoromethyl-phenylcarbamoyl)-methyl]-phenyl}-acrylamide], in experiment [1], the “p21/klf2 (RP3): relative selectivity compared with SNDX-275” value (from here on “p21/klf2 (RP3): relative selectivity”) turned out to be 1.1 and the “p21/klf2 (RP10): relative selectivity compared with SNDX-275” value (shortened to “p21/klf2 (RP10): relative selectivity”) is listed as 2.7. Further, the “p21 (RP3): relative induction potency compared with SNDX-275” value (“p21 (RP3): relative induction potency” for short) in experiment [2] is on record as 97%. Also, the GI50 in experiment [3] was 0.9 µM.

With `CNC(C(=O)Nc1ccc(C(F)(F)F)cc1)c1ccc(/C=C/C(=O)Nc2ccccc2N)cc1` (stereo not shown) [Example 9-17, (E)-N-(2-Amino-phenyl)-3-{4-[methylamino-(4-trifluoromethyl-phenylcarbamoyl)-methyl]-phenyl}-acrylamide], in experiment [1], the “p21/klf2 (RP3): relative selectivity” value came to 1.3 and the “p21/klf2 (RP10): relative selectivity” value is reported as 1.9. Moreover, the “p21 (RP3): relative induction potency” value in experiment [2] amounted to 84%. Besides, the 50% growth inhibitory concentration (GI50) in experiment [3] was determined as 1.9 µM.

Turning to `Nc1ccccc1NC(=O)/C=C/c1ccc(C(NCCC2CCOCC2)C(=O)Nc2ccc(C(F)(F)F)cc2)cc1` (stereo not shown) [Example 9-18, (E)-N-(2-Amino-phenyl)-3-{4-[[2-(tetrahydro-pyran-4-yl)-ethylamino]-(4-trifluoromethyl-phenylcarbamoyl)-methyl]-phenyl}-acrylamide], in experiment [1], the “p21/klf2 (RP3): relative selectivity” value worked out at 1.0 and the “p21/klf2 (RP10): relative selectivity” value came out at 1.7. The “p21 (RP3): relative induction potency” value in experiment [2] was 70%. Further, the GI50 in experiment [3] was 1 µM.

Consider `C[C@@H]1CN(CCNC(C(=O)Nc2ccc(C(F)(F)F)cc2)c2ccc(/C=C/C(=O)Nc3ccccc3N)cc2)C[C@H](C)O1` (stereo partly drawn) [Example 9-28, (E)-N-(2-Amino-phenyl)-3-{4-[[2-((2R,6S)-2,6-dimethyl-morpholin-4-yl)-ethylamino]-(4-trifluoromethyl-phenylcarbamoyl)-methyl]-phenyl}-acrylamide], for which, in experiment [1], the “p21/klf2 (RP3): relative selectivity” value is listed as 0.5 and the “p21/klf2 (RP10): relative selectivity” value came out at 0.9. In addition, in experiment [2], the “p21 (RP3): relative induction potency” value is reported as 33%. Also, in experiment [3], the GI50 is 1.8 µM.

With `Nc1ccccc1NC(=O)/C=C/c1ccc(C(C(=O)Nc2ccc(C(F)(F)F)cc2)N2CCCCC2)cc1` (stereo not shown) [Example 9-29, (E)-N-(2-Amino-phenyl)-3-{4-[piperidin-1-yl-(4-trifluoromethyl-phenylcarbamoyl)-methyl]-phenyl}-acrylamide], in experiment [1], the “p21/klf2 (RP3): relative selectivity” value was determined as 0.3 and the “p21/klf2 (RP10): relative selectivity” value came to 0.5. Also, the “p21 (RP3): relative induction potency” value in experiment [2] is listed as 10%. Further, in experiment [3], the concentration for 50% growth inhibition (GI50) was determined as 7.1 µM.

On to `Nc1ccccc1NC(=O)/C=C/c1ccc(C(OCCN2CCOCC2)C(=O)Nc2ccc(C(F)(F)F)cc2)cc1` (stereo not shown) [Example 19, (E)-N-(2-Amino-phenyl)-3-{4-[(2-morpholin-4-yl-ethoxy)-(4-trifluoromethyl-phenylcarbamoyl)-methyl]-phenyl}-acrylamide], for which, in experiment [1], the “p21/klf2 (RP3): relative selectivity” value came out at 1.6 and the “p21/klf2 (RP10): relative selectivity” value worked out at 3.6. Further, the “p21 (RP3): relative induction potency” value in experiment [2] is reported as 98%. The GI50 in experiment [3] was 2.2 µM.

Regarding `Nc1ccccc1NC(=O)/C=C/c1ccc(C(NCCN2CCOCC2)C(=O)Nc2ccc(C(F)(F)F)cc2)cc1` (stereo not shown) [Example 30, (E)-N-(2-Amino-phenyl)-3-{4-[(2-morpholin-4-yl-ethylamino)-(4-trifluoromethyl-phenylcarbamoyl)-methyl]-phenyl}-acrylamide], in experiment [1], the “p21/klf2 (RP3): relative selectivity” value was 1.3 and the “p21/klf2 (RP10): relative selectivity” value worked out at 3.9. In experiment [2], the “p21 (RP3): relative induction potency” value was 100%. In addition, the GI50 in experiment [3] came to 0.8 µM.

By GI50 is commonly meant the concentration at which growth is held to half of that of the control.

Source of the values: patent US7795315B2, “N-(2-amino-phenyl)-amide derivatives” (Hoffman-La Roche Inc., priority 2008, dated 2010).
